Measurements: US10807968B2, “Substituted 2-(het)arylimidazolylcarboxyamides as pesticides” (Bayer CropScience Aktiengesellschaft, priority 2016, dated 2020)
Where two headings read alike, the source gives them in different places.

Assays:
Myzus persicae [1] = assay: Myzus persicae - spray test (MYZUPE), comparison with prior art; assay type: in vivo; details: read-out: % efficacy dat
Protocol: Myzus persicae—Spray Test (MYZUPE)
(§1) Solvent: 78.0 parts by weight of acetone • • 1.5 parts by weight of dimethylformamide
(§2) Emulsifier: alkylaryl polyglycol ether
(§3) To produce a suitable preparation of active compound, 1 part by weight of active compound is dissolved using the specified parts by weight of solvent and made up with water containing an emulsifier concentration of 1000 ppm until the desired concentration is attained. To produce further test concentrations, the formulation is diluted with emulsifier-containing water.
Discs of Chinese cabbage leaves (Brassica pekinensis) infested by all stages of the green peach aphid (Myzus persicae) are sprayed with an active compound preparation of the desired concentration.
After the desired period of time, the efficacy in % is determined. 100% means that all the aphids have been killed; 0% means that no aphids have been killed.

Myzus persicae [2] = assay: Myzus persicae - oral test (MYZUPE O), comparison with prior art; assay type: in vivo; details: 120 h, read-out: % efficacy dat
Protocol: Myzus persicae—Oral Test (MYZUPE O)
(§4) Solvent: 100 parts by weight of acetone
To produce a suitable preparation of active compound, 1 part by weight of active compound is dissolved using the specified parts by weight of solvent and made up with water until the desired concentration is attained.
50 μl of the active compound preparation are transferred into microtitre plates and made up to a final volume of 200 μl with 150 μl of IPL41 insect medium (33%+15% sugar). Subsequently, the plates are sealed with parafilm, which a mixed population of green peach aphids (Myzus persicae) within a second microtitre plate is able to puncture and imbibe the solution through it.
After 5 or 6 days (dat), the efficacy in % is determined. 100% means that all the aphids have been killed; 0% means that no aphids have been killed.

[3] = log P determination by HPLC on reversed-phase (C18) columns, OECD Guideline 117; assay type: physicochemical
Protocol: The log P values were determined in accordance with OECD Guideline 117 (EC Directive 92/69/EEC) by HPLC (high-performance liquid chromatography) using reversed-phase (RP) columns (C18), by the following methods:
[a] The LC-MS determination in the acidic range was carried out at pH 2.7 with 0.1% aqueous formic acid and acetonitrile (contains 0.1% formic acid) as mobile phases; linear gradient from 10% acetonitrile to 95% acetonitrile.
[b] LC-MS determination in the neutral range was carried out at pH 7.8 with 0.001 molar aqueous ammonium hydrogencarbonate solution and acetonitrile as mobile phases; linear gradient from 10% acetonitrile to 95% acetonitrile.

Myzus persicae [4] = assay: Myzus persicae - spray test (Chinese cabbage leaf discs); assay type: in vivo; details: 500 g/ha, after 6 days; for pest or weed control at 500 g/ha: Myzus persicae, foliar, 144 h, read-out: efficacy in % (aphids killed)
Protocol: Myzus persicae—Spray Test
Solvent: 78 parts by weight of acetone • • 1.5 parts by weight of dimethylformamide
as §2
as §3, with “an emulsi fier” for “an emulsifier”
Discs of Chinese cabbage leaves (Brassica pekinensis) infested by all stages of the green peach aphid (Myzus persicae) are sprayed with an active compound formulation of the desired concentration.
After 6 days, the efficacy in % is determined. 100% means that all the aphids have been killed; 0% means that no aphids have been killed.

Myzus persicae [5] = assay: Myzus persicae - oral test; assay type: in vivo; details: after 5 days; for pest or weed control at 20 ppm: Myzus persicae, 120 h, read-out: efficacy in % (aphids killed); for efficacy in % (aphids killed): 20 ppm
Protocol: as §4
Subsequently, the plates are sealed with parafilm, which a mixed population of green peach aphids (Myzus persicae) within a second microtitre plate is able to puncture and imbibe the solution through it.
After 5 days, the efficacy in % is determined. 100% means that all the aphids have been killed; 0% means that no aphids have been killed.

Myzus persicae [6] = assay: Myzus persicae - spray test (bell pepper plants); assay type: in vivo; details: 20 ppm, after 6 days
Protocol: Myzus persicae—Spray Test Solvent: 14 parts by weight of dimethylformamide Emulsifier: alkylaryl polyglycol ether […] To produce further test concentrations, the formulation is diluted with emulsifier-containing water. If the addition of ammonium salts or/and penetrants is required, these are each added in a concentration of 1000 ppm to the formulation solution. Bell pepper plants (Capsicum annuum) severely infested with the green peach aphid (Myzus persicae) are treated by spraying with the active compound formulation in the desired concentration.

Tetranychus urticae = Tetranychus urticae - spray test, OP-resistant; assay type: in vivo; details: 500 g/ha, after 6 days, bean leaf discs
Protocol: Tetranychus Urticae—Spray Test, OP-Resistant
as §1, §2, §3
Discs of bean leaves (Phaseolus vulgaris) infested with all stages of the greenhouse red spider mite (Tetranychus urticae) are sprayed with an active compound formulation of the desired concentration.
After 6 days, the efficacy in % is determined. 100% means that all the spider mites have been killed; 0% means that no spider mites have been killed.

Meloidogyne incognita = Meloidogyne incognita test; assay type: in vivo; details: 20 ppm, after 14 days, lettuce in sand
Protocol: Meloidogyne Incognita Test
Solvent: 125.0 parts by weight of acetone
To produce a suitable active compound formulation, 1 part by weight of active compound is mixed with the stated amount of solvent and the concentrate is diluted with water to the desired concentration.
Vessels are filled with sand, active compound solution, an egg/larvae suspension of the southern root-knot nematode (Meloidogyne incognita) and lettuce seeds. The lettuce seeds germinate and the plants develop. The galls develop on the roots.
After 14 days, the nematicidal efficacy in % is determined by the formation of galls. 100% means that no galls were found; 0% means that the number of galls on the treated plants corresponds to the untreated control.

[7] = 144 h, MYZUPE, 100 g ai/ha, 6 dat
[8] = reversed-phase (C18) HPLC column, pH 2.7, HPLC, acidic range pH 2.7, 0.1% aqueous formic acid/acetonitrile, read-out: logp-acidic
[9] = reversed-phase (C18) HPLC column, pH 7.8, HPLC, neutral range pH 7.8, 0.001 molar aqueous ammonium hydrogencarbonate/acetonitrile, read-out: logp-neutral
[10] = HPLC, acidic range pH 2.7, 0.1% aqueous formic acid/acetonitrile
[11] = 120 h, MYZUPE, 100 g ai/ha, 5 dat
[12] = HPLC, neutral range pH 7.8, 0.001 molar aqueous ammonium hydrogencarbonate/acetonitrile

SMILES	Emax at 4 ppm (Myzus persicae [2]; MYZUPE O, 4 ppm, 5 dat) [%]	chromatographic logP [3, 8]	chromatographic logP [3, 9]	pest or weed control at 500 g/ha (Myzus persicae [4]) [%]	pest or weed control at 20 ppm (Myzus persicae [5]) [%]	efficacy in % (aphids killed) (Myzus persicae [5]) [%]	kill in % (aphids killed) (Myzus persicae [6]) [%]	logp-acidic ([3]; pH 2.7)	logp-neutral ([3]; pH 7.8)	further results
Cc1nc(C(=O)Nc2cccnc2)c[nH]1 [Comparative Ex. 1, reference compound]	0	–	–	–	–	–	–	–	–	Emax at 100 g/ha (Myzus persicae [1]; MYZUPE, 100 g ai/ha, 5/6 dat): 0%
O=C(Nc1cccnc1)c1c[nH]cn1 [Comparative Ex. 2, reference compound]	0	–	–	–	–	–	–	–	–	Emax at 100 g/ha (Myzus persicae [1]; [7]): 0%
CN(C(=O)c1cnc(-c2ncccn2)n1C)c1cccnc1 [Example 4]	100	0.35	0.73	90	100	–	–	–	–	Emax at 100 g/ha (Myzus persicae [1]; [7]): 90%
CN(C(=O)c1cnc(-c2ccc(Cl)cc2Cl)n1C)c1cccnc1 [Example 12]	–	–	–	–	–	100	100	–	–	logp-acidic [3, 10]: 1.66
CN(C(=O)c1cnc(-c2ccc(C#N)c(C(F)(F)F)c2)n1C)c1cccnc1 [Example 16]	–	–	–	–	–	–	–	–	–	Emax at 100 g/ha (Myzus persicae [1]; 144 h): 90%; Emax at 4 ppm (Myzus persicae [2]): 100%
CN(C(=O)c1cnc(-c2ccc(F)c(COC(=O)C3CC3)c2)n1C)c1cccnc1 [Example 46]	–	–	–	–	–	100	95	0.73	1.35	–
CN(C(=O)c1cnc(-c2cccc([S+]([O-])C(F)(F)F)c2)n1C)c1cccnc1 (stereo not shown) [Example 49]	–	–	–	–	–	100	100	1.28	1.62	–
CN(C(=O)c1cnc(-c2ccc(F)c(C(F)(F)F)c2)n1C)c1cccnc1 [Example 50]	–	1.72	2.08	–	100	–	100	–	–	–
CN(C(=O)c1cnc(-c2cc(Cl)cc(C(F)(F)F)c2)n1C)c1cccnc1 [Example 51]	–	–	–	–	–	100	100	2.17	2.43	–
CN(C(=O)c1cnc(-c2cccc(C(F)(F)F)c2)n1C)c1cccnc1 [Example 52]	–	–	–	–	–	100	–	1.64	1.99	efficacy in % (spider mites killed) (Tetranychus urticae): 90%; efficacy in % (aphids killed) (Myzus persicae [4]): 100%
CN(C(=O)c1cnc(-c2cccc(C(F)(F)C(F)(F)F)c2)n1C)c1cccnc1 [Example 57]	–	–	–	–	–	100	–	2.09	2.40	efficacy in % (spider mites killed) (Tetranychus urticae): 90%; efficacy in % (aphids killed) (Myzus persicae [4]): 100%
CN(C(=O)c1cnc(-c2cncc(C#N)c2)n1C)c1cccnc1 [Example 64]	–	0.75	0.98	90	100	–	–	–	–	Emax at 100 g/ha (Myzus persicae [1]; 120 h): 90%; Emax at 4 ppm (Myzus persicae [2]): 100%
CN(C)c1ncc(-c2ncc(C(=O)N(C)c3cccnc3)n2C)cc1C#N [Example 65]	100	1.1	1.5	100	100	–	–	–	–	Emax at 100 g/ha (Myzus persicae [1]; [11]): 90%
COc1ncc(-c2ncc(C(=O)N(C)c3cccnc3)n2C)cc1C#N [Example 68]	100	1.2	1.44	100	100	–	–	–	–	Emax at 100 g/ha (Myzus persicae [1]; [11]): 100%
CN(C(=O)c1cnc(-c2cc3ccccc3o2)n1C)c1cccnc1 [Example 70]	–	–	–	–	100	–	95	–	–	chromatographic logP ([3]; HPLC, acidic range pH 2.7, 0.1% aqueous formic acid/acetonitrile, read-out: logp-acidic): 1.63; chromatographic logP ([3]; HPLC, neutral range pH 7.8, 0.001 molar aqueous ammonium hydrogencarbonate/acetonitrile, read-out: logp-neutral): 1.87
CCOC(=O)c1cc(-c2ncc(C(=O)N(C)c3cccnc3)n2C)on1 [Example 72]	–	–	–	–	–	100	–	1.42	1.51	efficacy in % (spider mites killed) (Tetranychus urticae): 90%
CCN(C(=O)c1cnc(-c2ccccn2)n1C)c1cccnc1 [Example 77]	–	–	–	–	–	100	100	–	–	logp-acidic [3, 10]: 0.97; logp-neutral [3, 12]: 1.39; efficacy in % (aphids killed) (Myzus persicae [4]): 100%
COc1cccc(-c2ncc(C(=O)N(C)c3cccnc3)n2C)n1 [Example 78]	100	1.23	1.6	90	100	–	–	–	–	Emax at 100 g/ha (Myzus persicae [1]; [11]): 70%
COc1ccc(-c2ncc(C(=O)N(C)c3cccnc3)n2C)c(OC)n1 [Example 81]	70	0.89	1.69	100	100	–	–	–	–	Emax at 100 g/ha (Myzus persicae [1]; [11]): 70%
CN(C(=O)c1cnc(-c2cccc3c2OCO3)n1C)c1cccnc1 [Example 83]	–	–	–	–	–	100	–	–	–	logp-acidic [3, 10]: 0.9; logp-neutral [3, 12]: 1.44; nematicidal efficacy in % (formation of galls) (Meloidogyne incognita): 100%; efficacy in % (aphids killed) (Myzus persicae [4]): 90%
COc1ncc(Cl)cc1-c1ncc(C(=O)N(C)c2cccnc2)n1C [Example 87]	100	1.35	1.64	100	100	–	–	–	–	Emax at 100 g/ha (Myzus persicae [1]; [11]): 90%
COc1cc(-c2ncc(C(=O)N(C)c3cccnc3)n2C)cc(C(F)(F)F)n1 [Example 99]	100	2.05	2.23	90	100	–	–	–	–	Emax at 100 g/ha (Myzus persicae [1]; [11]): 70%
CC(C)Oc1ccc(-c2ncc(C(=O)N(C)c3cccnc3)n2C)cc1C#N [Example 105]	–	–	–	–	–	100	–	1.55	1.87	efficacy in % (spider mites killed) (Tetranychus urticae): 100%; efficacy in % (aphids killed) (Myzus persicae [4]): 90%
